The test system of assay [1] is HDACs (HeLa cell nuclear extracts). Nature of the assay: HDAC enzymatic activity, Biomol Color de Lys system. Format: biochemical. Particulars: 1 hour, 25° C. The method in brief:
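HeLa nuclear extract incubated with serially diluted compound and […] artificial substrate in 50 mM Tris/Cl pH 8.0, 137 mM NaCl, 2.7 mM KCl, 1 mM MgCl2. Run 1 h at 25 °C, stopped with developer. Fluorescence read (ex 350-380, em 440-460 nm); IC50 from sigmoidal dose-response fit.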

The next assay addresses T1, PI3Kα (p110α/p85α) (Homo sapiens, UniProt P42336).
T1 construct: GST (N); made in house; host or cells: Baculovirus-infected Sf9 cells
Nature of the assay: PI3Kα ADP-Glo assay. Format: biochemical. To be noted: 20 μM PIP2, 10 μM ATP, 30 minutes. The method in brief:
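Recombinant full-length human GST-p110α/His-p85α, co-expressed in Sf9 cells, was incubated 30 min at room temperature with 20 μM PIP2 and 10 μM ATP. The buffer was 50 mM HEPES pH 7.4, 150 mM NaCl, 5 mM MgCl2, 1 mM DTT, 3 µM orthovanadate and 0.5% DMSO. ADP formed was detected by ADP-Glo luminescence.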
A general note: In ADP-Glo the light output rises with the ADP produced.

The next assay has as its system CFPAC-1. Nature of the assay: Cell proliferation assay (CellTiter-Glo). Format: cell-based. Particulars: Homo sapiens, Pancreas, 72 hours, 0.5% fetal bovine serum, read-out: antiproliferative activity IC50, CFPAC-1. The method, boiled down: (§1)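 Proliferation is gauged by cellular ATP via firefly luciferase luminescence following 72-hour compound treatment in 0.5% serum.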
Background: ATP-based viability assays read luminescence as a measure of living cells.

The subject of another assay is CaPan2. As to the kind of experiment: Cell proliferation assay (CellTiter-Glo). Format: cell-based. Particulars: Homo sapiens, Capan-2; Pancreas; 72 hours, 0.5% fetal bovine serum; read-out: antiproliferative activity IC50, CaPan2. The method in brief:
as §1

The next assay relates to Calu6. Nature of the assay: Cell proliferation assay (CellTiter-Glo). Format: cell-based. To be noted: Homo sapiens, Calu-6; NSCLC; 72 hours, 0.5% fetal bovine serum; read-out: antiproliferative activity IC50, Calu6. The method, boiled down:
as §1

Another assay relates to H460. Nature of the assay: Cell proliferation assay (CellTiter-Glo). Format: cell-based. To be noted: Homo sapiens, NCI-H460; NSCLC; 72 hours, 0.5% fetal bovine serum; read-out: antiproliferative activity IC50, H460. The method in brief: as §1
The test system of a further assay is HCT116. Nature of the assay: Cell proliferation assay (CellTiter-Glo). Format: cell-based. Particulars: Homo sapiens, HCT-116; Colon; 72 hours, 0.5% fetal bovine serum; read-out: antiproliferative activity IC50, HCT116. The method in brief:
as §1

The test system of another assay is MDA-MB-231. Nature of the assay: Cell proliferation assay (CellTiter-Glo). Format: cell-based. To be noted: Homo sapiens, Breast, 72 hours, 0.5% fetal bovine serum, read-out: antiproliferative activity IC50, MDA-MB-231. The method, boiled down: as §1
Another assay deals with MiaPaca1. Nature of the assay: Cell proliferation assay (CellTiter-Glo). Format: cell-based. To be noted: Pancreas; 72 hours, 0.5% fetal bovine serum; read-out: antiproliferative activity IC50, MiaPaca1. The method, boiled down: as §1
Another assay concerns PANC-1. As to the kind of experiment: Cell proliferation assay (CellTiter-Glo). Format: cell-based. Particulars: Homo sapiens, Pancreas, 72 hours, 0.5% fetal bovine serum, read-out: antiproliferative activity IC50, PANC-1. The method in brief: as §1
For the next assay, the system named is SW1990. As to the kind of experiment: Cell proliferation assay (CellTiter-Glo). Format: cell-based. Particulars: Homo sapiens, Pancreas, 72 hours, 0.5% fetal bovine serum, read-out: antiproliferative activity IC50, SW1990. The method, boiled down: as §1
The test system of the next assay is WiDr. As to the kind of experiment: Cell proliferation assay (CellTiter-Glo). Particulars: Homo sapiens, Colon, 72 hours, 0.5% fetal bovine serum, read-out: antiproliferative activity IC50, WiDr. Format: cell-based. The method in brief: as §1

pIC50: −log10 of the molar value.

T1 sequence (P42336 whole entry): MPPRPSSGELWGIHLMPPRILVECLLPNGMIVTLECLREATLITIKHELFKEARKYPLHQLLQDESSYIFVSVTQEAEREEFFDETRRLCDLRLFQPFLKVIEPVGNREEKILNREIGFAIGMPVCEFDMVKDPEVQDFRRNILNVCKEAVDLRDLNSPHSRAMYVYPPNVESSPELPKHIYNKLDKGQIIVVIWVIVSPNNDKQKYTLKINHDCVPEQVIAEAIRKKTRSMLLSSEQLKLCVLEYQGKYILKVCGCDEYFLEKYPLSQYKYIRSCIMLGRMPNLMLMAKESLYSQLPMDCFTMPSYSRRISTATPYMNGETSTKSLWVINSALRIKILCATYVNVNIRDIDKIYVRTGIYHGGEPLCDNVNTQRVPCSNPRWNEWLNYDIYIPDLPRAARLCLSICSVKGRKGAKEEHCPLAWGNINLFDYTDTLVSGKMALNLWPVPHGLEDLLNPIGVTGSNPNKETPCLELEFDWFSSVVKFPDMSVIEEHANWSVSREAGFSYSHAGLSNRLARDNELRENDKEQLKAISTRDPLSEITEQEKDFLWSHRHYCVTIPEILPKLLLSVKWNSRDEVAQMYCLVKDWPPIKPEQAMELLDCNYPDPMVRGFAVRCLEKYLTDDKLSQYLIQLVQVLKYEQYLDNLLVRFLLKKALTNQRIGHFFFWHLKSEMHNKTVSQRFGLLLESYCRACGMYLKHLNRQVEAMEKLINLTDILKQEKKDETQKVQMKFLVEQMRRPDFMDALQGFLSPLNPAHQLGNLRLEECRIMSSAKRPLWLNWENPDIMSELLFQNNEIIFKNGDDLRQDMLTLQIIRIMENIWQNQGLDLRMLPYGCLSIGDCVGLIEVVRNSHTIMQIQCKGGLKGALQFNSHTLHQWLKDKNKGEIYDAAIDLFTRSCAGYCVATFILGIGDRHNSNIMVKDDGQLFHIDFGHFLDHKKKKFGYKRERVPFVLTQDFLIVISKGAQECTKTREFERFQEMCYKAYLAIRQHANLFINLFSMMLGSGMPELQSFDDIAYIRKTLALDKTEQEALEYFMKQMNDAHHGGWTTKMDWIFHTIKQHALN
T1 sequence (P27986 whole entry partner): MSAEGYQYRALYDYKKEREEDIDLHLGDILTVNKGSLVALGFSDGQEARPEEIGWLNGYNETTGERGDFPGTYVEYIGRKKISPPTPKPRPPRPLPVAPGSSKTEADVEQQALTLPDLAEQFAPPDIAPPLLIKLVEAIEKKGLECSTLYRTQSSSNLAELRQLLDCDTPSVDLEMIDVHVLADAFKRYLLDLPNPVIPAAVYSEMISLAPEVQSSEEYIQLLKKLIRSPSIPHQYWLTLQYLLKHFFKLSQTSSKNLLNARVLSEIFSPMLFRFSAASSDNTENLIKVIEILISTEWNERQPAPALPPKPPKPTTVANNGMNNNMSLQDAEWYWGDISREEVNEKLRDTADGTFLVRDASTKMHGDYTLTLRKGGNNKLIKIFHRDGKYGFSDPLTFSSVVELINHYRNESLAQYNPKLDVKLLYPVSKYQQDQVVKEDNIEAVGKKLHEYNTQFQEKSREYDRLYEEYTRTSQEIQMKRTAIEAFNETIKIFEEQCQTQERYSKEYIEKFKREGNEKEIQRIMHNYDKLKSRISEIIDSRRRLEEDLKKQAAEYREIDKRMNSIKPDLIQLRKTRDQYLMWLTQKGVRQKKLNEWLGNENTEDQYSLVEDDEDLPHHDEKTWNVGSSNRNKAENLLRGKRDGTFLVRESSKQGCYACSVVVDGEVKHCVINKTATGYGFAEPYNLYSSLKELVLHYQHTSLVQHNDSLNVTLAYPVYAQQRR

For `CNc1ccc(-c2nc(N3CCOCC3)c3sc(CN(C)c4ncc(C(=O)NO)cn4)cc3n2)cn1` [Compound 111, N-Hydroxy-2-(methyl((2-(6-(methylamino)pyridin-3-yl)-4-morpholinothieno[3,2-d]pyrimidin-6-yl)methyl)amino)pyrimidine-5-carboxamide], the negative logarithm of the IC50 (pIC50) in [1] was over 7.00; at PI3Kα (p110α/p85α), over 7.00; in the assay with CFPAC-1 it was 7.00 to 8.00; in the assay on CaPan2, 7.00 to 8.00; in the assay on Calu6 it was 7.00 to 8.00; with H460 it was 7.00 to 8.00. The pIC50 in the assay on HCT116 is over 8.00; in the assay with MDA-MB-231 it was 6.00 to 7.00; in the assay with MiaPaca1 it was over 8.00; in the assay on PANC-1, 7.00 to 8.00; in the assay with SW1990, over 8.00; in the assay with WiDr it was 7.00 to 8.00.
`CN(Cc1cc2nc(-c3cccc4[nH]ncc34)nc(N3CCOCC3)c2s1)c1ncc(C(=O)NO)cn1` [Compound 54, 2-(((2-(1H-indazol-4-yl)-4-morpholinothieno[3,2-d]pyrimidin-6-yl)methyl)(methyl)amino)-N-hydroxypyrimidine-5-carboxamide]: the negative-log IC50 (pIC50) is over 7.00 in assay [1]; over 7.00 at PI3Kα (p110α/p85α); 6.00 to 7.00 in the assay on CFPAC-1; 7.00 to 8.00 with CaPan2; 7.00 to 8.00 in the assay with Calu6; 6.00 to 7.00 in the assay on H460. Further, the pIC50 in the assay with HCT116 is over 8.00; in the assay on MDA-MB-231, 7.00 to 8.00; in the assay with MiaPaca1, 7.00 to 8.00; in the assay with PANC-1, 7.00 to 8.00; in the assay on SW1990, 7.00 to 8.00; in the assay on WiDr, 7.00 to 8.00.
As for `CN(Cc1cc2nc(-c3ccc(N)cc3)nc(N3CCOCC3)c2s1)c1ncc(C(=O)NO)cn1` [Compound 150, 2-(((2-(4-aminophenyl)-4-morpholinothieno[3,2-d]pyrimidin-6-yl)methyl)(methyl)amino)-N-hydroxypyrimidine-5-carboxamide], the negative-log IC50 (pIC50) in assay [1] is over 7.00; against PI3Kα (p110α/p85α), over 7.00; in the assay with CFPAC-1, 7.00 to 8.00; with CaPan2 it was over 8.00; in the assay on Calu6 it was over 8.00; with H460, 7.00 to 8.00. For the same molecule, the pIC50 in the assay with HCT116 is over 8.00; with MDA-MB-231, over 8.00; in the assay with MiaPaca1, over 8.00; in the assay on PANC-1, 7.00 to 8.00; in the assay on SW1990 it was over 8.00; in the assay with WiDr, 7.00 to 8.00.

In general, pIC50 refers to −log10 of the IC50, conventionally taken in molar units.
